Reference: patent publication US8865623B2, “Herbicidally active cyclic diones and derivatives thereof, processes for their preparation, compositions, and method of controlling weeds” (Syngenta Limited, priority 2009, dated 2014)

What was measured:
Format in all cases: in vivo
[1] = system: Avena fatua (AVEFA); assay: Pre-emergence herbicidal activity, glasshouse pot test; settings: Avena fatua, 312 h; Rate 250 g/ha; pre-emergence spray; evaluated after 13 days; read-out: Pre-emergence activity AVEFA (100=total damage to plant; 0=no damage to plant)
Procedure, shortened: (§1)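 Plants in standard-soil pots, glasshouse at 24/16° C, 14 h photoperiod, 65% humidity. Aqueous spray (acetone/water 50:50 formulation, 0.5% Tween 20) applied pre-emergence at day 1 or post-emergence at day 8. Percent damage recorded after 13 days.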

[2] = system: Echinochloa crus-galli (ECHCG); assay: as above; settings: Echinochloa crus-galli, 312 h; Rate 250 g/ha; pre-emergence spray; evaluated after 13 days; read-out: Pre-emergence activity ECHCG (100=total damage to plant; 0=no damage to plant)
Procedure, shortened: as §1

[3] = system: Alopecurus myosuroides (ALOMY); assay: as above; settings: Alopecurus myosuroides, 312 h; Rate 250 g/ha; pre-emergence spray; evaluated after 13 days; read-out: Pre-emergence activity ALOMY (100=total damage to plant; 0=no damage to plant)
Procedure, shortened: as §1

[4] = system: Lolium perenne (LOLPE); assay: as above; settings: Lolium perenne, 312 h; Rate 250 g/ha; pre-emergence spray; evaluated after 13 days; read-out: Pre-emergence activity LOLPE (100=total damage to plant; 0=no damage to plant)
Procedure, shortened: as §1

[5] = system: Avena fatua (AVEFA); assay: Post-emergence herbicidal activity, glasshouse pot test; settings: Avena fatua, 312 h, rate 250 g/ha, evaluated after 13 days, glasshouse, read-out: Post-emergence activity AVEFA (100=total damage to plant; 0=no damage to plant)
Procedure, shortened: as §1

[6] = system: Echinochloa crus-galli (ECHCG); assay: as above; settings: Echinochloa crus-galli, 312 h, rate 250 g/ha, evaluated after 13 days, glasshouse, read-out: Post-emergence activity ECHCG (100=total damage to plant; 0=no damage to plant)
Procedure, shortened: as §1

[7] = system: Alopecurus myosuroides (ALOMY); assay: as above; settings: Alopecurus myosuroides, 312 h, rate 250 g/ha, evaluated after 13 days, glasshouse, read-out: Post-emergence activity ALOMY (100=total damage to plant; 0=no damage to plant)
Procedure, shortened: as §1

[8] = system: Lolium perenne (LOLPE); assay: as above; settings: Lolium perenne, 312 h, rate 250 g/ha, evaluated after 13 days, glasshouse, read-out: Post-emergence activity LOLPE (100=total damage to plant; 0=no damage to plant)
Procedure, shortened: as §1

| SMILES | pest or weed control at 250 g/ha [1] [%] | pest or weed control at 250 g/ha [2] [%] | pest or weed control at 250 g/ha [3] [%] | pest or weed control at 250 g/ha [4] [%] | pest or weed control at 250 g/ha [5] [%] | pest or weed control at 250 g/ha [6] [%] | pest or weed control at 250 g/ha [7] [%] | pest or weed control at 250 g/ha [8] [%] |
| --- | --- | --- | --- | --- | --- | --- | --- | --- |
| CCc1ccc(Oc2nc3ccc(C)cc3s2)cc1C1=C(O)C(C)(C)OC(C)(C)C1=O [Example A-168] | 10 | 70 | 60 | 80 | 20 | 90 | 90 | 90 |
| CCc1ccc(Oc2cc(OC)c(Cl)nn2)cc1C1=C(O)C(C)(C)OC(C)(C)C1=O [Example A-169] | 0 | 30 | 20 | 10 | 30 | 30 | 20 | 20 |
| CCc1ccc(Oc2cnc3cc(F)ccc3n2)cc1C1=C(O)C(C)(C)OC(C)(C)C1=O [Example A-172] | 60 | 100 | 90 | 100 | 100 | 100 | 100 | 100 |
| CCc1ccc(Oc2nc3ccc(F)cc3nc2Cl)cc1C1=C(O)C(C)(C)OC(C)(C)C1=O [Example A-173] | 0 | 50 | 0 | 10 | 10 | 20 | 0 | 10 |
| CCc1ccc(Oc2nc3ccccc3nc2C(F)(F)F)cc1C1=C(O)C(C)(C)OC(C)(C)C1=O [Example A-174] | 40 | 100 | 50 | 70 | 100 | 100 | 90 | 90 |
| CCc1ccc(Oc2ccc(F)c(F)c2)cc1C1=C(O)C(C)(C)OC(C)(C)C1=O [Example A-177] | 0 | 60 | 0 | 30 | 20 | 70 | 0 | 40 |
| CCc1ccc(Oc2ccc(F)c(C(F)(F)F)c2)cc1C1=C(O)C(C)(C)OC(C)(C)C1=O [Example A-178] | 0 | 10 | 10 | 0 | 40 | 80 | 40 | 30 |
| CCc1ccc(Oc2ccc(Cl)cc2OC)cc1C1=C(O)C(C)(C)OC(C)(C)C1=O [Example A-181] | 0 | 0 | 0 | 0 | 0 | 30 | 0 | 20 |
| CCc1ccc(Oc2ccc(Cl)c(Cl)c2)cc1C1=C(O)C(C)(C)OC(C)(C)C1=O [Example A-182] | 30 | 90 | 30 | 80 | 60 | 100 | 90 | 60 |
| CCc1ccc(Oc2ccc(Cl)c(C(F)(F)F)c2)cc1C1=C(O)C(C)(C)OC(C)(C)C1=O [Example A-183] | 20 | 60 | 30 | 80 | 50 | 90 | 70 | 40 |
| CCc1ccc(Oc2ccc(Cl)c(C)c2)cc1C1=C(O)C(C)(C)OC(C)(C)C1=O [Example A-184] | 0 | 50 | 10 | 50 | 0 | 30 | 20 | 30 |
| CCc1ccc(Oc2cccc(C(F)(F)F)c2)cc1C1=C(O)C(C)(C)OC(C)(C)C1=O [Example A-185] | 0 | 30 | 0 | 0 | 20 | 70 | 20 | 30 |
| CCc1ccc(Oc2nc3ccc(Cl)cc3o2)cc1C1=C(O)C(C)(C)OC(C)(C)C1=O [Example A-188] | 90 | 90 | 90 | 100 | 100 | 100 | 100 | 100 |
| CCc1ccc(Oc2ccc(Br)cc2Cl)cc1C1=C(O)CC2(CCOCC2)CC1=O [Example A-189] | 40 | 90 | 50 | 60 | 100 | 100 | 90 | 90 |
| CCc1ccc(Oc2ccc(Cl)cc2Cl)cc1C1=C(O)CC2(CCOCC2)CC1=O [Example A-190] | 30 | 80 | 30 | 50 | 90 | 100 | 80 | 90 |
| CCc1ccc(Oc2ccc3cc(Cl)ccc3n2)cc1C1=C(O)CC2(CCOCC2)CC1=O [Example A-191] | 40 | 90 | 40 | 60 | 100 | 100 | 100 | 100 |
| CCc1ccc(Oc2c(F)ncc(Cl)c2F)cc1C1=C(O)C(C)(C)OC(C)(C)C1=O [Example A-192] | 0 | 20 | 0 | 0 | 10 | 40 | 0 | 10 |
| CCc1ccc(Oc2nc3c(Cl)cccc3s2)cc1C1=C(O)C(C)(C)OC(C)(C)C1=O [Example A-193] | 20 | 90 | 30 | 70 | 10 | 100 | 80 | 100 |
